Columns and labels:
Assay in all cases: Bliss excess, mean over the matrix (fraction); higher = more synergy
[1] = system: IST-MEL1 (Melanoma)
Method in brief: (§1)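 Cell lines in DMEM/F12 or RPMI with 10% FBS were plated in 1536-well plates, held 24 hours at 37°C, 5% CO2, then given two-drug dose matrices for 72 hours (DMSO typically 0.2%). Viability was read by CellTiter-Glo 2.0 luminescence and scaled as inhibition from 0 (vehicle wells) to 1 (blank wells). Combination Emax is the second-highest inhibition in the matrix; Bliss excess is observed combination effect minus expected EA + EB − EA·EB, EA and EB being single-agent effects.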

[2] = system: LCLC-103H (Non-Small Cell Lung Carcinoma)
Method in brief: as §1

[3] = system: LS-1034 (Colorectal Carcinoma)
Method in brief: as §1

[4] = system: MM1S (Plasma Cell Myeloma)
Method in brief: as §1

[5] = system: NB1 (Neuroblastoma)
Method in brief: as §1

[6] = system: NCI-H1876 (Small Cell Lung Carcinoma)
Method in brief: as §1

[7] = system: NCI-H1963 (Small Cell Lung Carcinoma)
Method in brief: as §1

[8] = system: NCI-H226 (Mesothelioma)
Method in brief: as §1

[9] = system: NCI-H2373 (Mesothelioma)
Method in brief: as §1

[10] = system: OAW-28 (Ovarian Carcinoma)
Method in brief: as §1

[11] = system: OVCAR-3 (Ovarian Carcinoma)
Method in brief: as §1

[12] = system: SAT (Head and Neck Carcinoma)
Method in brief: as §1

[13] = system: SK-CO-1 (Colorectal Carcinoma)
Method in brief: as §1

[14] = system: SNU-407 (Colorectal Carcinoma)
Method in brief: as §1

[15] = system: SUP-M2 (T-Cell Non-Hodgkin's Lymphoma)
Method in brief: as §1

[16] = system: SiHa (Cervical Carcinoma)
Method in brief: as §1

[17] = system: T47D (Breast Carcinoma)
Method in brief: as §1

[18] = system: T84 (Colorectal Carcinoma)
Method in brief: as §1

[19] = system: ZR-75-30 (Breast Carcinoma)
Method in brief: as §1

| SMILES | Bliss excess [1] | Bliss excess [2] | Bliss excess [3] | Bliss excess [4] | Bliss excess [5] | Bliss excess [6] | Bliss excess [7] | Bliss excess [8] | Bliss excess [9] | Bliss excess [10] | Bliss excess [11] | Bliss excess [12] | Bliss excess [13] | Bliss excess [14] | Bliss excess [15] | Bliss excess [16] | Bliss excess [17] | Bliss excess [18] | Bliss excess [19] |
| --- | --- | --- | --- | --- | --- | --- | --- | --- | --- | --- | --- | --- | --- | --- | --- | --- | --- | --- | --- |
| CC(=O)c1c(C)c2cnc(Nc3ccc(N4CCNCC4)cn3)nc2n(C2CCCC2)c1=O [Palbociclib] + Cc1c2c(nn1C)CSCc1cc(n(C)n1)CSc1cc(c3ccccc3c1)OCCCc1c(C(=O)O)n(C)c3c-2c(Cl)ccc13 [AZD5991] (first compound max 10 µM, 7x7, partner max 1 µM) | -0.0328 | -0.0151 | -0.064 | -0.0482 | -0.061 | 0.0191 | -0.0047 | -0.0287 | -0.0396 | 0.0058 | -0.0553 | -0.0367 | -0.035 | -0.0968 | -0.0132 | -0.0561 | 0.0375 | -0.0578 | -0.0372 |
| CC(=O)c1c(C)c2cnc(Nc3ccc(N4CCNCC4)cn3)nc2n(C2CCCC2)c1=O [Palbociclib] + Cn1cnc2c(F)c(Nc3ccc(Br)cc3Cl)c(C(=O)NOCCO)cc21 [Selumetinib] (first compound max 10 µM, 7x7, partner max 10 µM) | 0.052 | 0.0012 | 0.0354 | -0.0061 | -0.0669 | 0.0495 | 0.005 | -0.0052 | -0.0239 | -0.0301 | -0.0361 | 0.0504 | -0.0121 | 0.0615 | 0.0342 | -0.0404 | -0.0328 | -0.0476 | -0.0509 |
| C[C@@H](c1ccc2nccn2c1)n1nnc2ncc(-c3cnn(C)c3)nc21 [Savolitinib] + CC1(C)CCC(CN2CCN(c3ccc(C(=O)NS(=O)(=O)c4ccc(NCC5CCOCC5)c([N+](=O)[O-])c4)c(Oc4cnc5[nH]ccc5c4)c3)CC2)=C(c2ccc(Cl)cc2)C1 [Venetoclax] (first compound max 1 µM, 7x7, partner max 1 µM) | -0.0306 | -0.0518 | -0.0465 | -0.0663 | -0.0516 | -0.0486 | -0.0237 | -0.0342 | -0.0512 | -0.0331 | -0.0399 | -0.131 | -0.0491 | -0.0299 | -0.0238 | -0.0536 | -0.0753 | -0.0649 | -0.0361 |
| C[C@@H](c1ccc2nccn2c1)n1nnc2ncc(-c3cnn(C)c3)nc21 [Savolitinib] + Cc1c2c(nn1C)CSCc1cc(n(C)n1)CSc1cc(c3ccccc3c1)OCCCc1c(C(=O)O)n(C)c3c-2c(Cl)ccc13 [AZD5991] (first compound max 1 µM, 7x7, partner max 1 µM) | -0.0243 | -0.0417 | -0.022 | 0.021 | -0.0355 | 0.0044 | -0.0134 | -0.04 | -0.0618 | -0.0129 | -0.0341 | -0.0558 | -0.037 | -0.0396 | -0.0292 | -0.0335 | -0.0426 | -0.0652 | -0.0388 |

From the supplement of paper PMC11061612
